Experimental data published in patent publication US7507727B2, “Substituted quinobenzoxazine analogs and methods of using thereof” (Cylene Pharmaceuticals, Inc., priority 2003, dated 2009).

Biological target: c-Myc template DNA (c-myc quadruplex)
Assay: Quadruplex binding / stop assay (Taq polymerase arrest, capillary electrophoresis)
Settings: read-out: Stop Data c-Myc μM; concentration at which 50% of the DNA was arrested (arrested:full-length 1:1)

IC50, 1.75 µM:
CN(C)CCCCNc1c(F)cc2c(=O)c(C(=O)NCCN3CCOCC3)cn3c2c1Oc1c-3ccc2ccccc12 [compound 141]
CN(C)CCCCNc1c(F)cc2c(=O)c(C(=O)NCCCn3ccnc3)cn3c2c1Oc1c-3ccc2ccccc12 [compound 142]
O=C(NCCCN1CCOCC1)c1cn2c3c(c(NCCCN4CCOCC4)c(F)cc3c1=O)Oc1cc3c(cc1-2)oc1ccccc13 [compound 143]
CN1CCN(CCCNC(=O)c2cn3c4c(c(NCCCN5CCOCC5)c(F)cc4c2=O)Oc2cc4c(cc2-3)oc2ccccc24)CC1 [compound 144]
CN(C)CCCCNC(=O)c1cn2c3c(c(NCCCN4CCOCC4)c(F)cc3c1=O)Oc1cc3c(cc1-2)oc1ccccc13 [compound 145]
CN1CCN(CCCNC(=O)c2cn3c4c(c(NCCN5CCOCC5)c(F)cc4c2=O)Oc2cc4c(cc2-3)oc2ccccc24)CC1 [compound 146]
CN1CCCC1CCNC(=O)c1cn2c3c(c(NCCN4CCOCC4)c(F)cc3c1=O)Oc1cc3c(cc1-2)oc1ccccc13 (stereo not shown) [compound 147]
O=C(NCCN1CCCC1)c1cn2c3c(c(NCCN4CCOCC4)c(F)cc3c1=O)Oc1cc3c(cc1-2)oc1ccccc13 [compound 148]
CN1CCN(CCCNc2c(F)cc3c(=O)c(C(=O)NCCCN4CCOCC4)cn4c3c2Oc2cc3c(cc2-4)oc2ccccc23)CC1 [compound 149]
CN1CCN(CCCNc2c(F)cc3c(=O)c(C(=O)NCCN4CCOCC4)cn4c3c2Oc2cc3c(cc2-4)oc2ccccc23)CC1 [compound 150]
CN1CCN(CCCNC(=O)c2cn3c4c(c(NCCCN5CCN(C)CC5)c(F)cc4c2=O)Oc2cc4c(cc2-3)oc2ccccc24)CC1 [compound 151]
CN1CCN(CCCNc2c(F)cc3c(=O)c(C(=O)NCCN4CCCC4)cn4c3c2Oc2cc3c(cc2-4)oc2ccccc23)CC1 [compound 152]
CN(C)CCCCNC(=O)c1cn2c3c(c(NCCCN4CCN(C)CC4)c(F)cc3c1=O)Oc1cc3c(cc1-2)oc1ccccc13 [compound 153]
CN1CCN(CCCNc2c(F)cc3c(=O)c(C(=O)N4CCN(C)CC4)cn4c3c2Oc2cc3c(cc2-4)oc2ccccc23)CC1 [compound 154]
CN(C)CCCCNC(=O)c1cn2c3c(c(N4CCC(NC(=O)OC(C)(C)C)C4)c(F)cc3c1=O)Oc1cc3c(cc1-2)oc1ccccc13 (stereo not shown) [compound 155]
CN(C)CCCCNC(=O)c1cn2c3c(c(N4CC[C@@H](N)C4)c(F)cc3c1=O)Oc1c-2ccc2ccccc12 [compound 156]
N[C@@H]1CCN(c2c(F)cc3c(=O)c(C(=O)NCCCn4ccnc4)cn4c3c2Oc2c-4ccc3ccccc23)C1 [compound 157]
CN1CCCC1CCNc1c(F)cc2c(=O)c(C(=O)NCCN3CCOCC3)cn3c2c1Oc1cc2c(cc1-3)oc1ccccc12 (stereo not shown) [compound 158]
CN1CCCC1CCNc1c(F)cc2c(=O)c(C(=O)NCCCn3ccnc3)cn3c2c1Oc1cc2c(cc1-3)oc1ccccc12 (stereo not shown) [compound 159]
O=C(NCCCN1CCOCC1)c1cn2c3c(c(NCCN4CCCC4)c(F)cc3c1=O)Oc1cc3c(cc1-2)oc1ccccc13 [compound 160]
CN(C)CCCCNC(=O)c1cn2c3c(c(NCCN4CCCC4)c(F)cc3c1=O)Oc1cc3c(cc1-2)oc1ccccc13 [compound 161]
CN(C)CCCCNc1c(F)cc2c(=O)c(C(=O)NCCCN3CCOCC3)cn3c2c1Oc1cc2c(cc1-3)oc1ccccc12 [compound 162]
CN(C)CCCCNc1c(F)cc2c(=O)c(C(=O)NCCN3CCOCC3)cn3c2c1Oc1cc2c(cc1-3)oc1ccccc12 [compound 163]
CN(C)CCCCNc1c(F)cc2c(=O)c(C(=O)N3CCN(C)CC3)cn3c2c1Oc1cc2c(cc1-3)oc1ccccc12 [compound 164]
CN1CCN(CCCNC(=O)c2cn3c4cc5c(=O)c6ccccc6c(=O)c5cc4oc4c(NCCC5CCCN5C)c(F)cc(c2=O)c43)CC1 (stereo not shown) [compound 165]
O=C(NCCCN1CCOCC1)c1cn2c3cc4c(=O)c5ccccc5c(=O)c4cc3oc3c(NCCCN4CCOCC4)c(F)cc(c1=O)c32 [compound 166]
CN(C)CCCCNC(=O)c1cn2c3cc4c(=O)c5ccccc5c(=O)c4cc3oc3c(NCCCN4CCOCC4)c(F)cc(c1=O)c32 [compound 167]
CN1CCCC1CCNC(=O)c1cn2c3cc4c(=O)c5ccccc5c(=O)c4cc3oc3c(N4CCC(NC(=O)OC(C)(C)C)C4)c(F)cc(c1=O)c32 (stereo not shown) [compound 168]
CN1CCN(CCCNC(=O)c2cn3c4cc5c(=O)c6ccccc6c(=O)c5cc4oc4c(N5CCC(NC(=O)OC(C)(C)C)C5)c(F)cc(c2=O)c43)CC1 (stereo not shown) [compound 169]
CN1CCN(CCCNc2c(F)cc3c(=O)c(C(=O)N4CCN(C)CC4)cn4c5cc6c(=O)c7ccccc7c(=O)c6cc5oc2c34)CC1 [compound 170]
CN(C)CCCCNc1c(F)cc2c(=O)c(C(=O)NCCCN3CCN(C)CC3)cn3c4cc5c(=O)c6ccccc6c(=O)c5cc4oc1c23 [compound 171]
CN1CCN(c2c(F)cc3c(=O)c(C(=O)NCCCN4CCOCC4)cn4c5cc6c(=O)c7ccccc7c(=O)c6cc5oc2c34)CC1 [compound 172]
CN1CCN(CCCNC(=O)c2cn3c4c(c(N5CC[C@@H](NC(=O)CCN6CCN(C)CC6)C5)c(F)cc4c2=O)Oc2cc4c(cc2-3)oc2ccccc24)CC1 [compound 173]
CN1CCN(CCCNC(=O)c2cn3c4c(c(N5CC[C@@H](NC(=O)CCN6CCCC6)C5)c(F)cc4c2=O)Oc2cc4c(cc2-3)oc2ccccc24)CC1 [compound 174]
CN(C)CCC(=O)N[C@@H]1CCN(c2c(F)cc3c(=O)c(C(=O)NCCCN4CCN(C)CC4)cn4c3c2Oc2cc3c(cc2-4)oc2ccccc23)C1 [compound 175]
CN(C)CCCCNC(=O)c1cn2c3c(c(N4CC[C@@H](NC(=O)CCN5CCOCC5)C4)c(F)cc3c1=O)Oc1cc3c(cc1-2)oc1ccccc13 [compound 176]
CN(C)CCCCNCCC(=O)N[C@@H]1CCN(c2c(F)cc3c(=O)c(C(=O)N4CCOCC4)cn4c3c2Oc2cc3c(cc2-4)oc2ccccc23)C1 [compound 177]
CC(=O)N[C@@H]1CCN(c2c(F)cc3c(=O)c(C(=O)NCCCN4CCOCC4)cn4c3c2Oc2cc3c(cc2-4)oc2ccccc23)C1 [compound 178]
CC(=O)N[C@@H]1CCN(c2c(F)cc3c(=O)c(C(=O)NCCCN4CCN(C)CC4)cn4c3c2Oc2cc3c(cc2-4)oc2ccccc23)C1 [compound 179]
O=C(CNCCN1CCCC1)N[C@@H]1CCN(c2c(F)cc3c(=O)c(C(=O)N4CCOCC4)cn4c3c2Oc2cc3c(cc2-4)oc2ccccc23)C1 [compound 180]
CC(C)(C)OC(=O)NC1CCN(c2c(F)cc3c(=O)c(C(=O)NCCc4cnc[nH]4)cn4c3c2Oc2cc3ccccc3cc2-4)C1 (stereo not shown) [compound 181]
CC1(C)CC(NC(=O)c2cn3c4c(c(N5CCC(NC(=O)OC(C)(C)C)C5)c(F)cc4c2=O)Oc2cc4ccccc4cc2-3)CC(C)(C)N1 (stereo not shown) [compound 182]
CC(C)(C)OC(=O)NC1CCN(c2c(F)cc3c(=O)c(C(=O)NCCc4ccc(N)cc4)cn4c3c2Oc2cc3ccccc3cc2-4)C1 (stereo not shown) [compound 183]
CC(C)(C)OC(=O)NC1CCN(c2c(F)cc3c(=O)c(C(=O)NCc4nc5ccccc5[nH]4)cn4c3c2Oc2cc3ccccc3cc2-4)C1 (stereo not shown) [compound 184]
CC1CCCCN1CCCNC(=O)c1cn2c3c(c(N4CCC(NC(=O)OC(C)(C)C)C4)c(F)cc3c1=O)Oc1cc3ccccc3cc1-2 (stereo not shown) [compound 185]
CC(C)CC(C)(C)CNC(=O)c1cn2c3c(c(N4CCC(NC(=O)OC(C)(C)C)C4)c(F)cc3c1=O)Oc1cc3ccccc3cc1-2 (stereo not shown) [compound 186]
Cc1ncn(C(=O)c2cn3c4c(c(N5CCC(NC(=O)OC(C)(C)C)C5)c(F)cc4c2=O)Oc2cc4ccccc4cc2-3)c1CO (stereo not shown) [compound 187]
CC(C)(C)OC(=O)NC1CCN(c2c(F)cc3c(=O)c(C(=O)NCC[N+](C)(C)C)cn4c3c2Oc2cc3ccccc3cc2-4)C1 (stereo not shown) [compound 188]
CN1CCCC1CCNC(=O)c1cn2c3c(c(N)c(F)c(N4CC[C@H](N)C4)c3c1=O)Oc1cc3ccccc3cc1-2 (stereo partly shown) [compound 189]
CN(C)CCCCNC(=O)c1cn2c3c(c(N)c(F)c(N4CC[C@H](N)C4)c3c1=O)Oc1cc3ccccc3cc1-2 [compound 190]
CN1CCCC1CCNC(=O)c1cn2c3c(c(N)c(F)c(NCCCN4CCOCC4)c3c1=O)Oc1cc3ccccc3cc1-2 (stereo not shown) [compound 191]
CN(C)CCCCNC(=O)c1cn2c3c(c(N)c(F)c(NCCCN4CCOCC4)c3c1=O)Oc1cc3ccccc3cc1-2 [compound 192]
Nc1ccc(CCNC(=O)c2cn3c4c(c(N5CCC(N)C5)c(F)cc4c2=O)Oc2cc4ccccc4cc2-3)cc1 (stereo not shown) [compound 193]
CN(C)CCN(Cc1ccccc1)C(=O)c1cn2c3c(c(N4CCC(N)C4)c(F)cc3c1=O)Oc1cc3ccccc3cc1-2 (stereo not shown) [compound 194]
NC1CCN(c2c(F)cc3c(=O)c(C(=O)NCCN4CCCCC4)cn4c3c2Oc2cc3ccccc3cc2-4)C1 (stereo not shown) [compound 195]
NC1CCN(c2c(F)cc3c(=O)c(C(=O)NCc4nc5ccccc5[nH]4)cn4c3c2Oc2cc3ccccc3cc2-4)C1 (stereo not shown) [compound 196]
CN1CCCN(C(=O)c2cn3c4c(c(N5CCC(N)C5)c(F)cc4c2=O)Oc2cc4ccccc4cc2-3)CC1 (stereo not shown) [compound 197]
CN1CCC(N(C)C(=O)c2cn3c4c(c(N5CCC(N)C5)c(F)cc4c2=O)Oc2cc4ccccc4cc2-3)CC1 (stereo not shown) [compound 198]
Cc1ncn(C(=O)c2cn3c4c(c(N5CCC(N)C5)c(F)cc4c2=O)Oc2cc4ccccc4cc2-3)c1CO (stereo not shown) [compound 199]
NC1CCN(c2c(F)cc3c(=O)c(C(=O)NCCCn4ccnc4)cn4c3c2Oc2cc3ccccc3cc2-4)C1 (stereo not shown) [compound 200]
CC(=O)N1CCN(C(=O)c2cn3c4c(c(N5CCC(N)C5)c(F)cc4c2=O)Oc2cc4ccccc4cc2-3)CC1 (stereo not shown) [compound 201]
